Assay results published in the supplement of paper PMC11061612.

Experiments:
[1] = test system: EB2 (Burkitt's Lymphoma); experiment: Bliss excess, mean over the matrix (fraction); higher = more synergy
Outline: (§1)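 Cell lines in DMEM/F12 or RPMI with 10% FBS were plated in 1536-well plates, held 24 hours at 37°C, 5% CO2, then given two-drug dose matrices for 72 hours (DMSO typically 0.2%). Viability was read by CellTiter-Glo 2.0 luminescence and scaled as inhibition from 0 (vehicle wells) to 1 (blank wells). Combination Emax is the second-highest inhibition in the matrix; Bliss excess is observed combination effect minus expected EA + EB − EA·EB, EA and EB being single-agent effects.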

[2] = test system: EW-7 (Ewing's Sarcoma); experiment: as above
Outline: as §1

[3] = test system: UACC-812 (Breast Carcinoma); experiment: as above
Outline: as §1

[4] = test system: SW620 (Colorectal Carcinoma); experiment: as above
Outline: as §1

[5] = test system: NCI-H1651 (Lung Adenocarcinoma); experiment: combination Emax (second highest fraction inhibited in the dose matrix, 72 h); higher = more inhibition; extreme values may be limits of the assay
Outline: as §1

[6] = test system: A2780 (Ovarian Carcinoma); experiment: as above
Outline: as §1

[7] = test system: NCI-H441 (Lung Adenocarcinoma); experiment: as above
Outline: as §1

[8] = test system: CGTH-W-1 (Thyroid Gland Carcinoma); experiment: as above
Outline: as §1

[9] = test system: 769-P (Kidney Carcinoma); experiment: as above
Outline: as §1

[10] = test system: EW-7 (Ewing's Sarcoma); experiment: as above
Outline: as §1

[11] = test system: MHH-ES-1 (Ewing's Sarcoma); experiment: as above
Outline: as §1

[12] = test system: WM1552C (Melanoma); experiment: as above
Outline: as §1

[13] = test system: JHH-2 (Hepatocellular Carcinoma); experiment: as above
Outline: as §1

[14] = test system: PEO1 (Ovarian Carcinoma); experiment: as above
Outline: as §1

[15] = test system: SK-HEP-1 (Hepatocellular Carcinoma); experiment: as above
Outline: as §1

[16] = test system: MDA-MB-436 (Breast Carcinoma); experiment: as above
Outline: as §1

[17] = test system: HCC1395 (Breast Carcinoma); experiment: as above
Outline: as §1

[18] = test system: KYSE-220 (Esophageal Squamous Cell Carcinoma); experiment: as above
Outline: as §1

[19] = test system: NCI-H2087 (Lung Adenocarcinoma); experiment: as above
Outline: as §1

[20] = test system: HCC70 (Breast Carcinoma); experiment: as above
Outline: as §1
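For Bliss excess, mean over the matrix in this document: after 72 h of two-drug dosing.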

| SMILES | Bliss excess [1] | Bliss excess [2] | Bliss excess [3] | Bliss excess [4] | combination Emax [5] | combination Emax [6] | combination Emax [7] | combination Emax [8] | combination Emax [9] | combination Emax [10] | combination Emax [11] | combination Emax [12] | combination Emax [13] | combination Emax [14] | combination Emax [15] | combination Emax [16] | combination Emax [17] | combination Emax [18] | combination Emax [19] | combination Emax [20] |
| --- | --- | --- | --- | --- | --- | --- | --- | --- | --- | --- | --- | --- | --- | --- | --- | --- | --- | --- | --- | --- |
| CN(CCO)CC[C@H](CSc1ccccc1)Nc1ccc(S(=O)(=O)NC(=O)c2ccc(N3CCC([C@@H](O)c4ccccc4-c4ccc(Cl)cc4)CC3)cc2)cc1S(=O)(=O)C(F)(F)F [AZD4320] + Nc1ccn([C@@H]2O[C@H](CO)[C@@H](O)C2(F)F)c(=O)n1 [Gemcitabine] (first compound max 1 µM, 7x7, partner max 0.3 µM) | -0.0017 | 0.0189 | -0.0326 | -0.009 | 0.543 | 0.893 | 0.765 | 0.887 | 0.903 | 1 | 0.964 | 0.817 | 0.525 | 0.607 | 0.936 | 0.531 | 0.211 | 0.674 | 0.881 | 0.507 |
| Cc1cc2ncnn2cc1Nc1ncc2c(n1)n(C1CCOCC1)c(=O)n2C [AZD7648] + C=CCn1c(=O)c2cnc(Nc3ccc(N4CCN(C)CC4)cc3)nc2n1-c1cccc(C(C)(C)O)n1 [AZD1775] (first compound max 10 µM, partner max 1 µM) | -0.0857 | 0.0024 | -0.0446 | -0.0206 | 0.631 | 0.827 | 0.444 | 0.265 | 0.829 | 0.898 | 0.686 | 0.551 | 0.7 | 0.439 | 0.513 | 0.362 | 0.594 | 0.882 | 0.353 | 0.559 |
| Cc1cc2ncnn2cc1Nc1ncc2c(n1)n(C1CCOCC1)c(=O)n2C [AZD7648] + CCN(CCO)CCCOc1ccc2c(Nc3cc(CC(=O)Nc4cccc(F)c4)[nH]n3)ncnc2c1 [AZD2811] (first compound max 10 µM, 7x7, partner max 1 µM) | 0.0607 | 0.043 | 0.0276 | 0.0357 | 0.264 | 0.686 | 0.309 | 0.338 | 0.416 | 0.596 | 0.54 | 0.43 | 0.446 | 0.262 | 0.395 | 0.321 | 0.363 | 0.331 | 0.215 | 0.629 |
| Cc1cc2ncnn2cc1Nc1ncc2c(n1)n(C1CCOCC1)c(=O)n2C [AZD7648] + CN(C)CCCOc1ccc(-c2ccc3ncc4c(c3c2)n(C2CCOCC2)c(=O)n4C)cn1 [AZD0156] (first compound max 10 µM, 7x7, partner max 1 µM) | -0.0217 | -0.03 | 0.033 | 0.0148 | 0.194 | 0.609 | 0.324 | 0.228 | 0.264 | 0.682 | 0.269 | 0.29 | 0.491 | 0.184 | 0.23 | 0.289 | 0.366 | 0.27 | 0.146 | 0.3 |
| Cc1cc2ncnn2cc1Nc1ncc2c(n1)n(C1CCOCC1)c(=O)n2C [AZD7648] + COc1cc([C@@H]2c3cc4c(cc3[C@@H](O[C@@H]3O[C@@H]5CO[C@@H](C)O[C@H]5[C@H](O)[C@H]3O)[C@H]3COC(=O)[C@H]23)OCO4)cc(OC)c1O [Etoposide] (first compound max 10 µM, 7x7, partner max 10 µM) | 0.0495 | 0.0263 | -0.0106 | 0.0975 | 0.738 | 0.889 | 0.449 | 0.603 | 0.75 | 0.882 | 0.931 | 0.507 | 0.605 | 0.613 | 0.653 | 0.386 | 0.432 | 0.876 | 0.633 | 0.373 |
| Cc1cc2ncnn2cc1Nc1ncc2c(n1)n(C1CCOCC1)c(=O)n2C [AZD7648] + C[C@@H]1COCCN1C2=NC(=NC(=C2)C3(CC3)[S@](=N)(=O)C)C4=C5C=CNC5=NC=C4 [AZD6738] (first compound max 10 µM, 7x7, partner max 10 µM) | -0.0604 | -0.0058 | 0.0254 | 0.0264 | 0.536 | 0.806 | 0.478 | 0.317 | 0.819 | 0.924 | 0.565 | 0.633 | 0.736 | 0.482 | 0.382 | 0.362 | 0.748 | 0.91 | 0.583 | 0.764 |
| Cc1cc2ncnn2cc1Nc1ncc2c(n1)n(C1CCOCC1)c(=O)n2C [AZD7648] + O=C(c1cc(Cc2n[nH]c(=O)c3ccccc23)ccc1F)N1CCN(C(=O)C2CC2)CC1 [Olaparib] (first compound max 10 µM, 7x7, partner max 10 µM) | 0.0055 | -0.0027 | -0.0119 | -0.0305 | 0.263 | 0.576 | 0.163 | 0.122 | 0.232 | 0.536 | 0.801 | 0.117 | 0.473 | 0.153 | 0.242 | 0.195 | 0.4 | 0.149 | 0.135 | 0.178 |
